In the supplement of paper PMC10307832:

Legend:
Assay in all cases: relative viability (nuclei count vs DMSO), 5 days (fraction); higher = more cells survive
[1] = compound: CCc1cnn2c(NCc3ccc[n+]([O-])c3)cc(N3CCCC[C@H]3CCO)nc12 [Dinaciclib]
Method in brief: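 In 1536-well plates, lung cancer cell lines rested overnight at 37 °C before five library-drug doses (not always all listed), √10 apart, were pinned onto vehicle-anchored plates. Nuclei were counted with MetaXpress from 4× Hoechst images taken after 5 days without medium change. Viability compares treated-well with vehicle-well nuclei as a median over plates, and plates needed control CV below 25% plus at least one doubling to pass.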

[2] = compound: CCc1cnn2c(NCc3ccc[n+]([O-])c3)cc(N3CCCC[C@H]3CCO)nc12 [Dinaciclib] + O=C(c1cc(Cc2n[nH]c(=O)c3ccccc23)ccc1F)N1CCN(C(=O)C2CC2)CC1 [Olaparib] (partner 8 µM)
Method in brief: (§1)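 Cells from lung cancer lines were seeded into 1536-well plates and, one day later, dosed by pin tool. Treatments were either a single drug or a fixed dose of an anchor drug with five library-drug doses (not always all listed) in √10 steps. After 5 days, nuclei were stained in a one-step fixation (final 0.05% Triton X-100, 1% formaldehyde, 1 ug/ml Hoechst) and counted on 4× images, and relative viability is the treated-to-vehicle nuclei ratio, as the median of duplicate plates.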

[3] = compound: CCc1cnn2c(NCc3ccc[n+]([O-])c3)cc(N3CCCC[C@H]3CCO)nc12 [Dinaciclib] + C[C@@H](Oc1cc(-c2cnn(C3CCNCC3)c2)cnc1N)c1c(Cl)ccc(F)c1Cl [Crizotinib] (partner 1 µM)
Method in brief: as §1

[4] = compound: CCc1cnn2c(NCc3ccc[n+]([O-])c3)cc(N3CCCC[C@H]3CCO)nc12 [Dinaciclib] + Cc1nc(NC(=O)N2CCC[C@H]2C(N)=O)sc1-c1ccnc(C(C)(C)C(F)(F)F)c1 [Alpelisib] (partner 2 µM)
Method in brief: as §1

[5] = compound: CCc1cnn2c(NCc3ccc[n+]([O-])c3)cc(N3CCCC[C@H]3CCO)nc12 [Dinaciclib] + Cc1nc(Nc2ncc(C(=O)Nc3c(C)cccc3Cl)s2)cc(N2CCN(CCO)CC2)n1 [Dasatinib] (partner 0.075 µM)
Method in brief: as §1

Cell Line | relative viability ([1]; 0.009487 µM) | relative viability ([1]; 0.03 µM) | relative viability ([1]; 0.09487 µM) | relative viability ([1]; 0.3 µM) | relative viability ([2]; first compound 0.009487 µM) | relative viability ([2]; first compound 0.03 µM) | relative viability ([2]; first compound 0.09487 µM) | relative viability ([2]; first compound 0.3 µM) | relative viability ([3]; first compound 0.009487 µM) | relative viability ([3]; first compound 0.03 µM) | relative viability ([3]; first compound 0.09487 µM) | relative viability ([3]; first compound 0.3 µM) | relative viability ([4]; first compound 0.009487 µM) | relative viability ([4]; first compound 0.03 µM) | relative viability ([4]; first compound 0.09487 µM) | relative viability ([4]; first compound 0.3 µM) | relative viability ([5]; first compound 0.009487 µM) | relative viability ([5]; first compound 0.03 µM) | relative viability ([5]; first compound 0.09487 µM) | relative viability ([5]; first compound 0.3 µM)
NCI-H23 | 0.633 | 0.176 | 0.109 | 0.126 | 0.206 | 0.12 | 0.0827 | 0.101 | 0.47 | 0.171 | 0.107 | 0.0907 | 0.578 | 0.15 | 0.119 | 0.104 | 0.647 | 0.249 | 0.0991 | 0.114
NCI-H322M | 0.721 | 0.333 | 0.289 | 0.258 | 0.652 | 0.304 | 0.328 | 0.321 | 1.05 | 0.66 | 0.191 | 0.182 | 0.737 | 0.718 | 0.196 | 0.211 | 0.248 | 0.248 | 0.247 | 0.28
NCI-H358 | 0.785 | 0.153 | 0.104 | 0.131 | 0.552 | 0.0825 | 0.086 | 0.105 | 0.373 | 0.0972 | 0.135 | 0.144 | 0.61 | 0.14 | 0.161 | 0.183 | 0.182 | 0.0918 | 0.0845 | 0.0762
NCI-H441 | 1.13 | 0.162 | 0.146 | 0.158 | 0.432 | 0.141 | 0.125 | 0.127 | 0.595 | 0.134 | 0.0914 | 0.101 | 0.594 | 0.128 | 0.147 | 0.15 | 0.562 | 0.186 | 0.146 | 0.144
NCI-H460 | 0.885 | 0.0593 | 0.0265 | 0.0308 | 0.409 | 0.0325 | 0.0396 | 0.0408 | 0.688 | 0.0158 | 0.0092 | 0.011 | 0.383 | 0.0074 | 0.0122 | 0.0084 | 0.453 | 0.0263 | 0.0179 | 0.021
NCI-H520 | 0.915 | 0.276 | 0.155 | 0.18 | 0.259 | 0.117 | 0.101 | 0.114 | 0.573 | 0.102 | 0.124 | 0.128 | 0.601 | 0.148 | 0.141 | 0.147 | 0.201 | 0.151 | 0.165 | 0.155
NCI-H596 | 0.977 | 0.846 | 0.261 | 0.18 | 0.699 | 0.522 | 0.222 | 0.202 | 1.06 | 0.746 | 0.196 | 0.196 | 0.517 | 0.426 | 0.105 | 0.154 | 0.675 | 0.643 | 0.232 | 0.178
NCI-H647 | 0.713 | 0.0972 | 0.0714 | 0.0765 | 0.258 | 0.0359 | 0.0547 | 0.051 | 0.606 | 0.0725 | 0.0657 | 0.0722 | 0.585 | 0.055 | 0.0588 | 0.0651 | 0.104 | 0.0306 | 0.0319 | 0.042
NCI-H650 | 0.874 | 0.21 | 0.159 | 0.137 | 0.382 | 0.13 | 0.12 | 0.104 | 0.638 | 0.152 | 0.131 | 0.135 | 1.21 | 0.192 | 0.165 | 0.176 | 0.36 | 0.169 | 0.154 | 0.164
NCI-H661 | 1.03 | 0.246 | 0.201 | 0.19 | 0.664 | 0.227 | 0.148 | 0.147 | 1.02 | 0.474 | 0.145 | 0.166 | 0.346 | 0.147 | 0.176 | 0.152 | 0.38 | 0.144 | 0.17 | 0.132
NCI-H727 | 0.975 | 0.411 | 0.222 | 0.245 | 0.782 | 0.314 | 0.351 | 0.328 | 0.534 | 0.171 | 0.174 | 0.183 | 0.488 | 0.159 | 0.163 | 0.164 | 0.344 | 0.263 | 0.209 | 0.325
NCI-H838 | 0.88 | 0.173 | 0.128 | 0.137 | 0.431 | 0.101 | 0.0853 | 0.0924 | 0.791 | 0.182 | 0.0924 | 0.0905 | 0.916 | 0.149 | 0.11 | 0.123 | 0.176 | 0.173 | 0.143 | 0.138
NCI-H1355 | 1.08 | 0.681 | 0.214 | 0.151 | 0.755 | 0.487 | 0.133 | 0.141 | 1.17 | 0.762 | 0.185 | 0.141 | 0.933 | 0.233 | 0.141 | 0.159 | 0.815 | 0.419 | 0.147 | 0.159
